Results reported in patent US8906888B2, “Low-calcemic 16,23-diene 25-oxime analogs of 1α,25-dihydroxy vitamin D3” (Cytochroma Inc., priority 2005, dated 2014).

Key:
[1] = target: T1, CYP27A1 (Homo sapiens, UniProt Q02318); assay: CYP27A1 enzyme assay; type: biochemical; conditions: read-out: IC50 in the inhibition of CYP27A1
T1 sequence (Q02318 34-531): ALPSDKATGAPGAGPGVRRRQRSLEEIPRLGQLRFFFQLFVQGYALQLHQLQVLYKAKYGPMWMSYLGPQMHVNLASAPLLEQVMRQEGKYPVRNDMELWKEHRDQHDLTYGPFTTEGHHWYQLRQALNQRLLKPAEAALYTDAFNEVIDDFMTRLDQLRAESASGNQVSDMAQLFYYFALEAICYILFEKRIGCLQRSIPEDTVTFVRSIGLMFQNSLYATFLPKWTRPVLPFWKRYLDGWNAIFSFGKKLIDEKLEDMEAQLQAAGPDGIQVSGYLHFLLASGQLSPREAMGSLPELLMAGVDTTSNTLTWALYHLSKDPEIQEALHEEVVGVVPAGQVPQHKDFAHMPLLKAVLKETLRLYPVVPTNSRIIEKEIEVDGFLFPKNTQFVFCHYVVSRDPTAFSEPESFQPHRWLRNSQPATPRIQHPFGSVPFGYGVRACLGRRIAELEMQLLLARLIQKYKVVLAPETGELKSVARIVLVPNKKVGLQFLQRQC

[2] = system: SCC-25 cells; assay: [3H]-Thymidine proliferation assay with SCC-25 cells; type: cell-based; conditions: head and neck cancer cells, 3 days, 3H-thymidine incorporation
Description: 1. Preparation of Cell Suspension • When SCC-25 cells were 70-80% confluent, aspirated media. Washed the cells with 1×PBS. Trypsinized with trypsin-EDTA from the plate, collected cells from the tissue culture flask, centrifuged (500×g, 5 min) and resuspended in media.
2. Cell Plating. • Counted the cells and adjusted the cell density to 10,000/ml. Added 200 μl per well in a 96 well plate. Incubated plate for 24 h at 37° C. in a humidified atmosphere plus 5% CO2. Aspirated used media and replaced with 175 μl per well with media.
(§1) 3. Substrate Addition. • Added 25 μl of compound (final concentration 10^−7 M, 5×10^−8 M, 10^−8 M, 5×10^−9 M, 10^−10 M or 0 M) into each designated well. Incubated plates for 3 days at 37° C. in a humidified atmosphere plus 5% CO2.
(§2) 4. ^3H-Thymidine Incorporation. • Added ^3H-thymidine at 0.02 μCi per well and incubated at 37° C. in a humidified atmosphere plus 5% CO2 for 6 h.
(§3) 5. Plate Harvesting. • Aspirated all media and washed cells with 1×PBS. Trypsinized cells for 30 min at 37° C. in a humidified atmosphere plus 5% CO2. Harvested cells onto a 96 well filter plate (Millipore) using a Tomtec Cell Harvestor, according to manufacturers instructions.
6. Scintillation Counting. • Added 25 μl of scintillation fluid per well. Counted the plate using a scintillation counter. Results: Compound (20R)-1(e) inhibited SCC-25 cell proliferation.

[3] = system: LNCaP cells; assay: [3H]-Thymidine proliferation assay with LNCaP cells; type: cell-based; conditions: prostate cancer cells, 3 days, 3H-thymidine incorporation
Description: 1. Preparation of Cell Suspension. • When LNCaP cells were 70-80% confluent, aspirated media. Washed the cells with 1×PBS. Trypsinized with trypsin-EDTA from the plate, collected cells from the tissue culture flask, centrifuged (500×g, 5 min) and resuspended in media.
2. Cell Plating. • Counted the cells and adjusted the cell density to 2,000/ml. Added 200 μl per well in a 96 well plate. Incubated plate for 24 h at 37° C. in a humidified atmosphere plus 5% CO2. Aspirated used media and replace with 175 μl per well with media.
as §1, §2
5. Plate Harvesting. • Aspirated all media. Trypsinized cells for 30 min at 37° C. in a humidified atmosphere plus 5% CO2. Harvested cells onto a 96 well filter plate (Millipore) using a Tomtec Cell Harvestor, according to manufacturers instructions.
6. Scintillation Counting. • Added 25 μl of scintillation fluid per well. Counted the plate using a scintillation counter. Results: Compound (20R)-I(e) inhibited LNCaP cell proliferation.

[4] = system: BxPC-3 cells; assay: [3H]-Thymidine proliferation assay with BxPC-3 cells; type: cell-based; conditions: pancreatic cancer cells, 3 days, 3H-thymidine incorporation
Description: 1. Preparation of Cell Suspension • When BxPC-3 cells were 70-80% confluent, aspirated media. Washed the cells with 1×PBS. Trypsinized with trypsin-EDTA from the plate, collected cells from the tissue culture flask, centrifuged (500×g, 5 min) and resuspended in media.
2. Cell Plating. • Counted the cells and adjusted the cell density to 2,000/ml. Added 200 μl per well in a 96 well plate. Incubated plate for 24 h at 37° C. in a humidified atmosphere plus 5% CO2. Aspirated used media and replaced with 175 μl per well with media.
3. Substrate Addition. • Added 25 μl of compound (final concentration 10^−7 M, 5×10^−8 M, 10^−8M, 5×10^−9 M, 10^−10 M or 0 M) into each designated well. Incubated plates for 3 days at 37° C. in a humidified atmosphere plus 5% CO2.
as §2, §3
6. Scintillation Counting. • Added 25 μl of scintillation fluid per well. Counted the plate using a scintillation counter. Results: Compound (20R)-I(e) inhibited BxPC-3 cell proliferation.

IC50 [1]: > 1000 nM
SMILES: C=C1/C(=C\C=C2/CCC[C@]3(C)C([C@H](C)C/C=C/C(=NOC)C(C)(C)C)=CC[C@@H]23)C[C@@H](O)C[C@@H]1O [(20R)-I(e)]
Inhibition of SCC-25 cell proliferation [2]: inhibited
Inhibition of LNCaP cell proliferation [3]: inhibited
Inhibition of BxPC-3 cell proliferation [4]: inhibited
